Experimental data reported in ChEMBL document CHEMBL1909569 (Bioorg Med Chem Lett, 2011).
In brackets after ≈: the same amount, converted by molar mass.

What was measured:
Escherichia coli [1] = test: Antimicrobial activity against wild type Escherichia coli TG2 after 16 to 20 hrs; assay type: functional
[2] = system: Mycobacterium tuberculosis; test: Antimicrobial activity against replicating Mycobacterium tuberculosis after 8 days by micro plate alamar blue assay; assay type: functional; details: 192 h
Escherichia coli [3] = test: Antimicrobial activity against wild type Escherichia coli DH5[alpha] after 16 to 20 hrs; assay type: functional
[4] = target: T1, DNA-directed RNA polymerase subunit beta (Mycobacterium tuberculosis) (UniProt P9WGY9); test: Ratio of compound IC50 to Rifamycin S IC50 for wild type Mycobacterium tuberculosis RNA polymerase
T1 sequence (whole entry): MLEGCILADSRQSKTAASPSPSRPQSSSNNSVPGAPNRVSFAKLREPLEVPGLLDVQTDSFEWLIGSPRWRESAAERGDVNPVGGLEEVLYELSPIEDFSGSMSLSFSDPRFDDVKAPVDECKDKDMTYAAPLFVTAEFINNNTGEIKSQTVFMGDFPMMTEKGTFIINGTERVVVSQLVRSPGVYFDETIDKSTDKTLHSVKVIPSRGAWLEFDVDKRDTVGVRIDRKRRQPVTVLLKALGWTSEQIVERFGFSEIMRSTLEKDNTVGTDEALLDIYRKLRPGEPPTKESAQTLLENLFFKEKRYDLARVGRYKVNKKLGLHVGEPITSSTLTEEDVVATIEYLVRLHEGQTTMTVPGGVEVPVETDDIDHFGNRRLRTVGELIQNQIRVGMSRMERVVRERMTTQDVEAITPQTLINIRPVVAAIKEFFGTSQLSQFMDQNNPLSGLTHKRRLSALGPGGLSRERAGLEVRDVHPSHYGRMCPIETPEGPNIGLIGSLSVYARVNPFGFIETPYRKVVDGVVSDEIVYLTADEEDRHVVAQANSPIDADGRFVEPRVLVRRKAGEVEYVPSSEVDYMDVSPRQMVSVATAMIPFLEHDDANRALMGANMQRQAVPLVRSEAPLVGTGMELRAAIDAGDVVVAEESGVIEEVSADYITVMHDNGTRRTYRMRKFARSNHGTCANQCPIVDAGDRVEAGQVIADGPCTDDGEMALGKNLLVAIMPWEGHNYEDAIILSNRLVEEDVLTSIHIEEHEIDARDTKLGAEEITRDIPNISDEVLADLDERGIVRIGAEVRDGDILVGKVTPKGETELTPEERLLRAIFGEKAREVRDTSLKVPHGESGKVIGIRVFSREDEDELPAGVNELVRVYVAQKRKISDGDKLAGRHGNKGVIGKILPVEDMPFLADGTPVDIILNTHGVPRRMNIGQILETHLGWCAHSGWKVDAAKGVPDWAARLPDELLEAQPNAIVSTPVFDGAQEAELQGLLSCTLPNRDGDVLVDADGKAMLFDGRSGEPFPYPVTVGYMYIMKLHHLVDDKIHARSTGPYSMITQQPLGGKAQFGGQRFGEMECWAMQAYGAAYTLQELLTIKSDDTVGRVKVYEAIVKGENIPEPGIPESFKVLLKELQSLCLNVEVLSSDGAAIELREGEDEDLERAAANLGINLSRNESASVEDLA

[5] = system: Mycobacterium tuberculosis; test: Antimicrobial activity against non-replicating Mycobacterium tuberculosis after 11 days by luminescence based low oxygen recovery assay; assay type: functional; details: 264 h
[6] = target: T2, DNA-directed RNA polymerase subunit beta (Mycobacterium tuberculosis, UniProt P9WGY9); test: (§1) Inhibition of wild type Mycobacterium tuberculosis RNA polymerase after 10 mins using ribo green staining by rolling circle transcription assay
T2 sequence (P9WGY9 whole entry): T1 sequence (whole entry)

[7] = target: T1, DNA-directed RNA polymerase subunit beta (Mycobacterium tuberculosis); test: as §1; parameters: unit not given here
Escherichia coli [8] = test: Antimicrobial activity against Escherichia coli EC2880 mutant after 16 to 20 hrs; assay type: functional
[9] = target: T3, Nuclear receptor subfamily 1 group I member 2 (Homo sapiens, UniProt O75469); test: (§2) Activation of human PXR in DPX2 cells after 24 hrs by microplate reader relative to control; assay type: ADME, cell-based
T3 sequence (O75469 whole entry): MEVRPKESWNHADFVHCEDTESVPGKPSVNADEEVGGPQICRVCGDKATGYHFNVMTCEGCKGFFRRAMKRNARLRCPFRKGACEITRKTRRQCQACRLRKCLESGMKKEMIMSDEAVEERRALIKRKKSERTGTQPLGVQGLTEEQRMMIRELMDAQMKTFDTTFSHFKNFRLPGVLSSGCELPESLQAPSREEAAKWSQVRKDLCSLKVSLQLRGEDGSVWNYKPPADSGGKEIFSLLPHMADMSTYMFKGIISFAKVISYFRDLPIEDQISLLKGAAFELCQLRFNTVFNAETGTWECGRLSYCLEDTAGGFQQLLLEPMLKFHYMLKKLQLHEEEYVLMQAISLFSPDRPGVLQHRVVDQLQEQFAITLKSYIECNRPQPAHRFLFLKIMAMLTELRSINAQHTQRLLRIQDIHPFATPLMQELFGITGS

[10] = target: T4, PXR (nuclear receptor subfamily 1 group I member 2) (Homo sapiens, UniProt O75469); test: as §2; assay type: ADME, cell-based; details: human, DPX2 cells; read-out: FC
T4 sequence (O75469 whole entry): T3 sequence (O75469 whole entry)

[11] = target: T3, Nuclear receptor subfamily 1 group I member 2; test: Activation of human PXR in DPX2 cells up to 100 uM after 24 hrs by microplate reader relative to control; assay type: ADME, cell-based

Work on `CO[C@H]1/C=C/O[C@@]2(C)Oc3c(C)c(OS(=O)(=O)c4ccc(C)cc4)c4c(c3C2=O)C(=O)C=C(NC(=O)/C(C)=C\C=C\[C@H](C)[C@H](O)[C@@H](C)[C@@H](O)[C@@H](C)[C@H](OC(C)=O)[C@@H]1C)C4=O` yielded an MIC90 (Escherichia coli [1]) of over 100 µM, an MIC90 [2] of 0.2 µM (≈ 0.17 µg/mL) and an MIC90 (Escherichia coli [3]) of over 100 µM. For the same compound, the Ratio IC50 [4] was 2, the MIC90 [5] was 3 µM (≈ 2.55 µg/mL) and the IC50 [6] was 21 nM. The logIC50 [7] was -1.68 and the MIC90 (Escherichia coli [8]) was 3.12 µM (≈ 2.66 µg/mL).

Compound `CO[C@H]1/C=C/O[C@@]2(C)Oc3c(C)c(SC)c4c(c3C2=O)C(=O)C=C(NC(=O)/C(C)=C\C=C\[C@H](C)[C@H](O)[C@@H](C)[C@@H](O)[C@@H](C)[C@H](OC(C)=O)[C@@H]1C)C4=O` has an MIC90 (Escherichia coli [1]) of over 100 µM, an MIC90 [2] of 2 µM (≈ 1.45 µg/mL) and an MIC90 (Escherichia coli [3]) of over 100 µM. For the same compound, the MIC90 [5] was 1.3 µM (≈ 0.944 µg/mL), the IC50 [6] was 15 nM and the logIC50 [7] was -1.82. The MIC90 (Escherichia coli [8]) was over 12.5 µM.

`CNc1c(C)c2c3c4c(O)c(/C=N/N5CCN(C)CC5)c(c(O)c14)NC(=O)/C(C)=C\C=C\[C@H](C)[C@H](O)[C@@H](C)[C@@H](O)[C@@H](C)[C@H](OC(C)=O)[C@H](C)[C@@H](OC)/C=C/O[C@@](C)(O2)C3=O` gave an EC50 [9] of 4100 nM, a fold induction at 24 h [10] of 8.9 and an MIC90 [2] of 4 µM (≈ 3.34 µg/mL). The MIC90 [5] was over 19.1 µM.

For `CO[C@H]1/C=C/O[C@@]2(C)Oc3c(C)c(O)c4c(c3C2=O)C(=O)C=C(NC(=O)/C(C)=C\C=C\[C@H](C)[C@H](O)[C@@H](C)[C@@H](O)[C@@H](C)[C@H](OC(C)=O)[C@@H]1C)C4=O` [RIFAMYCIN S], the MIC90 (Escherichia coli [1]) was 100 µM (≈ 69.6 µg/mL), the MIC90 [2] was 0.03 µM (≈ 0.0209 µg/mL) and the MIC90 (Escherichia coli [3]) was over 100 µM. It also gave an MIC90 [5] of 0.4 µM (≈ 0.278 µg/mL), an IC50 [6] of under 10 nM and an MIC90 (Escherichia coli [8]) of 0.78 µM (≈ 0.543 µg/mL).

With `CO[C@H]1/C=C/O[C@@]2(C)Oc3c(C)c(O)c4c(c3C2=O)C(=O)C(/C=N/N2CCN(C)CC2)=C(NC(=O)/C(C)=C\C=C\[C@H](C)[C@H](O)[C@@H](C)[C@@H](O)[C@@H](C)[C@H](OC(C)=O)[C@@H]1C)C4=O` [RIFAMPIN S] the MIC90 (Escherichia coli [1]) was 12.5 µM (≈ 10.3 µg/mL), the MIC90 [2] was 0.07 µM (≈ 0.0575 µg/mL) and the MIC90 (Escherichia coli [3]) was 25 µM (≈ 20.5 µg/mL). It also gave an MIC90 [5] of 0.5 µM (≈ 0.41 µg/mL), an IC50 [6] of 13 nM and a logIC50 [7] of -1.88. For the same compound, the MIC90 (Escherichia coli [8]) was 0.1 µM (≈ 0.0821 µg/mL).

Compound `CO[C@H]1/C=C/O[C@@]2(C)Oc3c(C)c(N)c4c(c3C2=O)C(=O)C=C(NC(=O)/C(C)=C\C=C\[C@H](C)[C@H](O)[C@@H](C)[C@@H](O)[C@@H](C)[C@H](OC(C)=O)[C@@H]1C)C4=O` has an MIC90 (Escherichia coli [1]) of over 100 µM, an MIC90 [2] of 1.41 µM (≈ 0.98 µg/mL) and an MIC90 (Escherichia coli [3]) of over 100 µM. The MIC90 [5] was 22.2 µM (≈ 15.4 µg/mL), the IC50 [6] was 4400 nM and the logIC50 [7] was 0.644. The MIC90 (Escherichia coli [8]) was 12.5 µM (≈ 8.68 µg/mL).

In the case of `CNc1c(C)c2c3c4c1C(=O)C(=C(/C=N/N1CCN(C)CC1)C4=O)NC(=O)/C(C)=C\C=C\[C@H](C)[C@H](O)[C@@H](C)[C@@H](O)[C@@H](C)[C@H](OC(C)=O)[C@H](C)[C@@H](OC)/C=C/O[C@@](C)(O2)C3=O`, the EC50 [9] is reported as 2100 nM, the fold induction at 24 h [10] is reported as 6.9 and the MIC90 [2] is reported as 3.64 µM (≈ 3.04 µg/mL). For the same compound, the MIC90 [5] was over 19.2 µM.

`CO[C@H]1/C=C/O[C@@]2(C)Oc3c(c4c5c(nn(CCO)c5c3C)C(=C(/C=N/N3CCN(C)CC3)C4=O)NC(=O)/C(C)=C\C=C\[C@H](C)[C@H](O)[C@@H](C)[C@@H](O)[C@@H](C)[C@H](OC(C)=O)[C@@H]1C)C2=O` gave an MIC90 (Escherichia coli [1]) of over 100 µM, an MIC90 [2] of 3.9 µM (≈ 3.36 µg/mL) and an MIC90 (Escherichia coli [3]) of over 100 µM. It also gave an MIC90 [5] of over 18.6 µM, an IC50 [6] of 139 nM and a logIC50 [7] of -0.856. It also gave an MIC90 (Escherichia coli [8]) of over 12.5 µM.

`CO[C@H]1/C=C/O[C@@]2(C)Oc3c(C)c(N(C)C)c4c(c3C2=O)C(=O)C=C(NC(=O)/C(C)=C\C=C\[C@H](C)[C@H](O)[C@@H](C)[C@@H](O)[C@@H](C)[C@H](OC(C)=O)[C@@H]1C)C4=O` showed an MIC90 (Escherichia coli [1]) of over 100 µM, an MIC90 [2] of 1.8 µM (≈ 1.3 µg/mL) and an MIC90 (Escherichia coli [3]) of over 100 µM. For the same compound, the MIC90 [5] was 5.4 µM (≈ 3.9 µg/mL), the IC50 [6] was 503 nM and the logIC50 [7] was -0.298. It also gave an MIC90 (Escherichia coli [8]) of 12.5 µM (≈ 9.04 µg/mL).

In the case of `CO[C@H]1/C=C/O[C@@]2(C)Oc3c(c4c5c(nn(C)c5c3C)C(=C(/C=N/N3CCN(C)CC3)C4=O)NC(=O)/C(C)=C\C=C\[C@H](C)[C@H](O)[C@@H](C)[C@@H](O)[C@@H](C)[C@H](OC(C)=O)[C@@H]1C)C2=O`, the MIC90 [2] is reported as over 4.8 µM, the MIC90 [5] is reported as over 19.3 µM and the EC50 [11] is reported as “Not Active”.

Compound `CO[C@H]1/C=C/O[C@@]2(C)Oc3c(C)c(NC4CCCCCC4)c4c(c3C2=O)C(=O)C=C(NC(=O)/C(C)=C\C=C\[C@H](C)[C@H](O)[C@@H](C)[C@@H](O)[C@@H](C)[C@H](OC(C)=O)[C@@H]1C)C4=O` has an MIC90 (Escherichia coli [1]) of over 100 µM, an MIC90 [2] of 2.2 µM (≈ 1.74 µg/mL) and an MIC90 (Escherichia coli [3]) of over 100 µM. For the same compound, the MIC90 [5] was over 20.2 µM, the IC50 [6] was 15400 nM and the logIC50 [7] was 1.19. The MIC90 (Escherichia coli [8]) was over 12.5 µM.
